# Patent US8580776B2, “Compositions and methods for treating neurodegenerating diseases” (The Board of Trustees of the University of Illinois, priority 2007, dated 2013)
# Entries after “also recorded” stand apart in the source; their conditions may differ.
# Columns and labels:
# [1] = tested on: oligodendrocyte progenitor cells (OPCs); assay: Oligosphere / OPC maturation by immunostaining; assay type: cell-based, mouse
# Experimental: Initial studies were carried out to identify treatments that influence OLG maturation using primary oligodendrocyte progenitor cells (OPCs) from E13 mouse pups. The cells were isolated as E13 neurospheres, and were shifted to OLG commitment (Oligospheres) by culture in PDGFα and bFGF. E13 Oligospheres were cultured on polylysine coated slides in media (containing bFGF and PDGFα) in the presence or absence of 25 μM NA. After 2 days the cells were fixed and stained with antibody to MBP (FIGS. 12A and 12B).
# Further studies were carried out in which the oligospheres were cultured on polylysine coated slides in media (containing bFGF and PDGFα) in the presence or absence of 20 μM NA. After 24 hours the cells were fixed and stained with antibodies for PDGFRa, Oligodendrocyte Marker O4 and PLP (FIGS. 13 and 14).
# mouse neuronal N2A cells = assay: NEP activity in N2A cells incubated with NA; assay type: cell-based; conditions: N2A cells incubated with NA for 24 hr
# Experimental: Comparative real time RT-PCR (or quantitative PCR, QPCR) was used to measure mRNA levels of the Aβ degrading enzymes neprilysin (Nep) and insulin degrading enzyme (IDE) in brain samples from vehicle and DSP4 treated mice (FIG. 4A). Neprilysin activity in brain extracts was assayed by monitoring proteolysis of a fluorescent substrate (FIG. 4B). To assess the effects of dose, mouse neuronal N2A cells were incubated with increasing does of NA for 24 hr after which NEP activity was measured (FIG. 4D, data is mean±sd and is from n=3 samples).
# In the results shown in FIG. 4D, mouse neuronal N2A cells were incubated with NA for 24 hr after which NEP activity was measured. Data is mean±sd and is from n=3 samples.
# P1 OPCs = assay: QPCR of myelin genes in P1 OPCs treated with NA; assay type: cell-based; conditions: NA versus saline
# Experimental: Additional studies were carried out in which QPCR analysis was performed for BMPs, BMP antagonists and myelin genes on P1 OPCs treated with saline or NA. The QPCR condition and primers are as described in Example 3. For QPCR experiments, RNA levels were calculated from QPCR take-off points, normalized for RNA values obtained for GDH; the average value for the vehicle treated RNA levels was set to 1.0. Comparisons were made using unpaired T-test, and P values <0.05 were considered to be significant. (FIGS. 15A and 15B).
# primary microglia = assay: Microglial phagocytosis of FITC-labeled Aβ1-42 (FACS); assay type: cell-based, mouse; conditions: 10 nM to 10 μM, 4 hr, FITC-Aβ1-42 150 μM
# Experimental: The ability of NA to modulate Aβ phagocytosis, another means by which amyloid plaque burden is regulated, was tested. Primary microglia were incubated with indicated concentrations of NA (FIG. 5A) or the β-AR agonist isoproterenol (FIG. 5B), in the presence of FITC-labeled Aβ1-42 (150 μM). After 4 hr, intracellular levels of Aβ were determined as described below.
# Primary murine microglial cells were generated at P1 according to standard protocols. Briefly, frontal cortices of one day old C57BL6 mice were used to prepare mixed glial cultures in T75 cm^2 flasks in DMEM containing 10% FCS and antibiotics (100 IU/mL of penicillin and 100 ug/mL of streptomycin; Sigma), and incubated at 37° C. in a humidified atmosphere containing 5% CO2. Microglia were detached from the astrocyte monolayer by gentle shaking 11-13 days after the dissection, and cultures were 95-98% Mac1 positive.
# FACS analysis was used to quantify microglial phagocytosis of Aβ1-42. […] Fluorescent signals due to cell adherent Aβ were eliminated by resuspending an aliquot of cells in an equal volume of 1 mg trypan blue/mL (Merck, Darmstadt, Germany) acetate buffer to quench extracellular fluorescence. The mean fluorescence intensity (MFI) was measured on a FACScan (Becton Dickinson, Mountain View, Calif.) equipped with an argon-ion laser (excitation wavelength at 488 nm, laser power 300 mW) and a band pass filter of 530 nm. […]
# BMP2 = assay: QPCR of BMP2 mRNA in primary astrocytes; assay type: cell-based; conditions: 100 μM NA, 24 hr
# From the text: (§1) As shown in FIGS. 12C and 12D, BMP2 and BMP4 mRNA levels were decreased in astrocytes treated with NA. Data is mean±sd of n=2-3 experiments, and normalized to values for β-tubulin measured in the same samples.
# BMP4 = assay: QPCR of BMP4 mRNA in primary astrocytes; assay type: cell-based
# Experimental: as §1
# (§2) Further studies were carried out in which primary astrocytes were treated with 30 μM NA for 24 hours then mRNA levels of bone morphogenic proteins BMP2 and BMP4, Noggin, Gremlin, Follistatin and BAMBI were measured by QPCR (FIG. 16A). The results confirmed that BMP4 mRNA levels were decreased, whereas the Noggin mRNA levels were increased, in NA treated primary astrocytes (FIG. 16A).
# primary neurons = assay: Aβ-induced neuronal damage in primary neurons (LDH release, FJ staining); assay type: cell-based; conditions: LDH release and FJ staining
# Experimental: The levels of neuronal damage, using LDH release as a neuronal damage marker, were measured as a percentage of control. C: control; Aβ: primary neurons treated with Aβ; Aβ+NA: primary neurons treated Aβ and NA; and Aβ+dbcAMP: primary neurons treated with Aβ and dbcAMP. […] The staining intensity was quantified as a percentage of control as illustrated in the graph in FIG. 9B.
# Noggin = Noggin mRNA (QPCR) and protein staining in primary astrocytes; assay type: cell-based
# Experimental: as §2
# EAE mice [2] = assay: L-DOPS, Atomoxetine and combination in EAE mice (Example 13); assay type: in vivo; conditions: from day 17 after booster MOG, tri-weekly, L-DOPS 400 mg/kg s.c. plus 125 mg/kg bensazeride i.p., Atomoxetine 20 mg/kg
# From the text: (§3) To assess disease severity, clinical signs were scored as follows: 0 indicated no clinical signs, 1 indicated a limp tail, 2 indicated an impaired righting of the animal, 3 indicated paresis of one hind limb, 4 indicated paresis of two hind limbs, and 5 indicated the death of the animal.
# To test whether increasing NA derived from the NA precursor L-DOPS in combination with a NA reuptake inhibitor could provide benefit in EAE, C57B16 mice were immunized with MOG35-55 peptide using standard procedures as described in Example 9.
# EAE mice [3] = assay: L-DOPS treatment of EAE mice (Example 10); assay type: in vivo
# Experimental: To test whether increased NA derived from the NA precursor L-DOPS could provide benefits in EAE, C57B16 mice were immunized with MOG35-55 peptide using standard procedures. At day 29 (FIG. 11A, arrow) after the booster MOG, 6 mice received daily injections of L-DOPS (using an intermediate dose of 200 mg/kg s.c.; plus 125 mg/kg bensazeride i.p. to block peripheral conversion to NA); control mice received saline. In the saline group, 4/6 mice were ill on day 29, and by day 36 all 6 were ill (FIG. 11A); the average clinical score increased from 1.3±0.4 (mean±se) on day 29 to 2.3±0.2 on day 37 (FIG. 11B). […] During treatment, scores of 2 of the 4 mice improved, and the average score decreased from 1.5±0.5 on day 29 to 1.2±0.4 on day 38.
# as §3
structure (smiles),measurement,setting,value
"NC[C@H](O)c1ccc(O)c(O)c1 [NA, noradrenaline]","OPC maturation, PDGFRa, O4 and PLP staining","[1]; 20 μM NA, 24 hours",accelerated OPC maturation
same,"OPC maturation, PDGFa, O4 and PLP staining (figure legends)","[1]; 30 μM NA, 24 hours",induces more processes and greater a number of cells; also recorded: increased OPC maturation
same,"OPC maturation, MBP staining","[1]; E13 oligospheres, 25 μM NA, 2 days",accelerated OPC maturation
same,NEP activity in cell culture,mouse neuronal N2A cells,increases NEP activity
same,"OPC maturation by Olig1, Olig2, GALc and CGT mRNA levels",P1 OPCs,increases OPC maturation
same,accumulation of fluorescently tagged Aβ1-42 (intracellular Aβ uptake),primary microglia,dose dependently increased
same,BMP2 mRNA levels,BMP2,decreased
same,BMP4 mRNA levels,"BMP4; 30 μM NA, 24 hours",decreased
same,BMP4 mRNA levels,"BMP4; 100 μM NA, 24 hr",decreased
same,Aβ induced damage in primary neurons,primary neurons,reduces Aβ induced damage
same,Noggin protein expression (antibody staining),Noggin; NA-treated primary astrocytes,increased Noggin expression
same,Noggin mRNA levels,"Noggin; primary astrocytes, 30 μM NA, 24 hours",increased
CNCC[C@@H](Oc1ccccc1C)c1ccccc1 [Atomoxetine],clinical scores / EAE symptoms,EAE mice [2],no effect on clinical scores
same,clinical scores / EAE symptoms,EAE mice [2]; listed as Axtomoxtine,limited benefit
"N[C@H](C(=O)O)[C@H](O)c1ccc(O)c(O)c1 [L-DOPS, (−)-threo-3-(3,4-dihydroxyphenyl)-L-serine]",clinical scores in EAE mice,EAE mice [3]; FIGS. 11A-11C,prevents the worsening of clinical scores
same,ill mice whose scores improved during treatment,EAE mice [3]; L-DOPS group,2 of the 4
same,incidence of disease during treatment,"EAE mice [3]; L-DOPS group after day 29, saline all 6 ill by day 36",did not further increase
same,mice ill on day 29,"EAE mice [3]; L-DOPS group, first day of treatment",4/6
same,"average clinical score, day 38","EAE mice [3]; daily L-DOPS 200 mg/kg s.c. plus 125 mg/kg bensazeride i.p. from day 29, saline 2.3±0.2 on day 37",1.2±0.4
same,"average clinical score, day 29","EAE mice [3]; first day of L-DOPS 200 mg/kg s.c. plus 125 mg/kg bensazeride i.p., mean±se",1.5±0.5
same,clinical scores / EAE symptoms,EAE mice [2],Benefits to EAE were seen; also recorded: stabilized scores
CC(C)NCC(O)c1ccc(O)c(O)c1 (stereo not shown) [isoproterenol],accumulation of fluorescently tagged Aβ1-42 (intracellular Aβ uptake),primary microglia,dose dependently increased
